Consider 18 molecules from PubChem BioAssay (NCI).

Some test systems named below: ACHN renal; CCRF-CEM leukemia; DU-145 prostate; K-562 leukemia; LOX IMVI melanoma; SF-539 CNS; SK-MEL-2 melanoma; SK-MEL-28 melanoma; SNB-75 CNS; SW-620 colon.
Holding throughout (experiment): DTP human tumour cell line panel, 48 h

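Test compounds were applied to cells in 96-well plates for 48 hours at 5 doses. TGI: concentration producing complete growth inhibition.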

As to `COc1ccc(/C(=N/O)c2ccccc2C2=Nc3ccccc3C(NCc3ccccc3)O2)cc1C` (stereo not given), the concentration for total growth inhibition (TGI) in the assay with ACHN renal is greater than 100 µM; in the assay with CCRF-CEM leukemia, greater than 100 µM; in the assay on DU-145 prostate it was greater than 100 µM; in the assay with K-562 leukemia, 97.4 µM; in the assay with LOX IMVI melanoma it was greater than 100 µM; in the assay on SF-539 CNS it was greater than 100 µM. Besides, the TGI with SK-MEL-2 melanoma is greater than 100 µM; in the assay on SK-MEL-28 melanoma, greater than 100 µM; with SNB-75 CNS it was 75.4 µM; in the assay on SW-620 colon it was greater than 100 µM.

`C[Si](C)(C)OC1(C#N)c2ccccc2CCCC12CCCC2` (stereo not given): the TGI in the assay with ACHN renal is greater than 100 µM; in the assay on CCRF-CEM leukemia it was 46 µM; in the assay with DU-145 prostate, greater than 100 µM; in the assay on K-562 leukemia, greater than 100 µM; with LOX IMVI melanoma, 49.6 µM; in the assay on SF-539 CNS it was greater than 100 µM. The TGI was 45.7 µM in the assay with SK-MEL-2 melanoma, greater than 100 µM in the assay on SK-MEL-28 melanoma, greater than 100 µM in the assay on SNB-75 CNS and greater than 100 µM with SW-620 colon.

As for `CCOc1ccc2c(c1)C(/C(C(Cl)=C(Cl)Cl)=[N+](/[O-])OC(=O)c1ccccc1)=N2`, the TGI in the assay on ACHN renal, in the assay with CCRF-CEM leukemia, in the assay on DU-145 prostate, with K-562 leukemia, in the assay on LOX IMVI melanoma and in the assay on SF-539 CNS was greater than 100 µM each time. Besides, the TGI in the assay on SK-MEL-2 melanoma, in the assay with SK-MEL-28 melanoma, in the assay with SNB-75 CNS and with SW-620 colon was greater than 100 µM throughout.

Turning to `CCOP(=O)(OCC)/C(=C/n1c(=S)[nH]c2ccccc21)C(=O)OC`, the TGI with ACHN renal, in the assay on CCRF-CEM leukemia, with DU-145 prostate, in the assay with K-562 leukemia, in the assay with LOX IMVI melanoma and with SF-539 CNS was greater than 100 µM each time. The concentration for total growth inhibition (TGI) in the assay with SK-MEL-2 melanoma, with SK-MEL-28 melanoma, with SNB-75 CNS and with SW-620 colon was greater than 100 µM in each case.

Take `COC1(OC)CC(CO)(COc2cc(Cl)nc(N)n2)C1`: the concentration for total growth inhibition (TGI) in the assay on ACHN renal, in the assay on CCRF-CEM leukemia, with DU-145 prostate, in the assay with K-562 leukemia, with LOX IMVI melanoma and in the assay on SF-539 CNS was greater than 100 µM each time. Also, the total growth inhibition concentration (TGI) in the assay with SK-MEL-2 melanoma, in the assay on SK-MEL-28 melanoma, with SNB-75 CNS and in the assay with SW-620 colon was greater than 100 µM throughout.

Regarding `CCCCCCCCCCCC(=O)N(CCCCCCCCC)CC(O)C(O)C(OC1OC(CO)C(O)C(O)C1O)C(O)CO` (stereo not given), the TGI in the assay on ACHN renal worked out at 32.1 µM; in the assay on CCRF-CEM leukemia, 41 µM; with DU-145 prostate, 33.8 µM; in the assay with K-562 leukemia it was 50.2 µM; with LOX IMVI melanoma it was 40.2 µM; in the assay with SF-539 CNS, 50.8 µM. Besides, the total growth inhibition concentration (TGI) in the assay on SK-MEL-2 melanoma worked out at 43.9 µM; with SK-MEL-28 melanoma it was 35.2 µM; in the assay on SNB-75 CNS it was 34.3 µM; in the assay with SW-620 colon it was 35.1 µM.

With `CN(C)C(=O)N1N[C@H](c2ccccc2)[C@@H]1c1ccccc1`, the total growth inhibition concentration (TGI) with ACHN renal, in the assay with CCRF-CEM leukemia, in the assay on DU-145 prostate, in the assay on K-562 leukemia, with LOX IMVI melanoma and in the assay on SF-539 CNS was greater than 100 µM in each case. The total growth inhibition concentration (TGI) in the assay on SK-MEL-2 melanoma, with SK-MEL-28 melanoma, in the assay on SNB-75 CNS and with SW-620 colon was greater than 100 µM each time.

For the molecule `Cc1cc2nc3c(C#N)c(C)c(CCCl)c(Cl)n3c2cc1C`, the TGI in the assay on ACHN renal is 11.1 µM; in the assay on CCRF-CEM leukemia it was 7.38 µM; in the assay on DU-145 prostate it was 13.6 µM; in the assay with K-562 leukemia, 6.63 µM; in the assay on LOX IMVI melanoma it was 2.88 µM; with SF-539 CNS, 5.09 µM. Further, the TGI with SK-MEL-2 melanoma came out at 3.99 µM; with SK-MEL-28 melanoma, 15.5 µM; in the assay with SNB-75 CNS it was 4.63 µM; in the assay on SW-620 colon it was 5.79 µM.

Regarding `N=C(N)SCc1nc(-c2ccc(Cl)cc2)no1`, the TGI in the assay on ACHN renal came to 27.5 µM; in the assay with CCRF-CEM leukemia, 31.8 µM; in the assay on DU-145 prostate, 63 µM; with K-562 leukemia, 41.9 µM; in the assay on LOX IMVI melanoma it was 31.2 µM; in the assay with SF-539 CNS, 41.4 µM. In addition, the TGI in the assay on SK-MEL-2 melanoma was determined as 41.7 µM; with SK-MEL-28 melanoma, 33 µM; in the assay on SNB-75 CNS, 59.4 µM; in the assay with SW-620 colon, 37.2 µM.

In the case of `O=C1CCCC1CC(CN1CCOCC1)Sc1nnnn1-c1ccccc1` (stereo not given), the TGI with ACHN renal, in the assay with CCRF-CEM leukemia, in the assay with DU-145 prostate, with K-562 leukemia, in the assay on LOX IMVI melanoma and in the assay with SF-539 CNS was greater than 100 µM throughout. The concentration for total growth inhibition (TGI) in the assay with SK-MEL-2 melanoma was greater than 100 µM; in the assay with SK-MEL-28 melanoma, greater than 100 µM; with SNB-75 CNS, 96.7 µM; in the assay with SW-620 colon, greater than 100 µM.

Take `COc1ccc(C2N(c3ccc(C)c(N=C=O)c3)C(=O)N3C(c4ccc(OC)cc4)N(c4ccc(C)c(N=C=O)c4)C(=O)N23)cc1` (stereo not given): the total growth inhibition concentration (TGI) with ACHN renal, with CCRF-CEM leukemia, in the assay with DU-145 prostate, in the assay with K-562 leukemia, in the assay on LOX IMVI melanoma and with SF-539 CNS was greater than 100 µM throughout. The TGI with SK-MEL-2 melanoma, with SK-MEL-28 melanoma, with SNB-75 CNS and in the assay with SW-620 colon was greater than 100 µM in each case.

Take `CCCCCc1cc2cc3c(c(O)c2c(=O)[nH]1)C1(CCC3)C(=O)c2c(O)ccc(O)c2C1=O`: the TGI in the assay on ACHN renal, in the assay with CCRF-CEM leukemia, in the assay with DU-145 prostate, with K-562 leukemia, in the assay on LOX IMVI melanoma and with SF-539 CNS was greater than 100 µM in each case. In addition, the total growth inhibition concentration (TGI) in the assay with SK-MEL-2 melanoma, with SK-MEL-28 melanoma, in the assay with SNB-75 CNS and in the assay on SW-620 colon was greater than 100 µM in each case.

Take `O=[N+]([O-])c1c(O)c2nonc2c2nn(-c3ccccc3)nc12`: the concentration for total growth inhibition (TGI) in the assay with ACHN renal, with CCRF-CEM leukemia, with DU-145 prostate, in the assay on K-562 leukemia, in the assay on LOX IMVI melanoma and in the assay on SF-539 CNS was greater than 100 µM throughout. Besides, the total growth inhibition concentration (TGI) with SK-MEL-2 melanoma, in the assay on SK-MEL-28 melanoma, in the assay with SNB-75 CNS and in the assay with SW-620 colon was greater than 100 µM each time.

On to `N#Cc1c(/C=C/c2ccccc2)c2c([nH]c1=S)CCCCC2`, for which the TGI in the assay on ACHN renal, in the assay with CCRF-CEM leukemia, in the assay on DU-145 prostate, in the assay with K-562 leukemia, in the assay with LOX IMVI melanoma and with SF-539 CNS was greater than 100 µM each time. Moreover, the TGI in the assay with SK-MEL-2 melanoma, in the assay on SK-MEL-28 melanoma, with SNB-75 CNS and in the assay on SW-620 colon was greater than 100 µM in each case.

On to `Cc1cnc2c(c1)C(=O)N(c1ccc(Oc3ccccc3)cc1)S2(=O)=O`, for which the TGI in the assay on ACHN renal, in the assay with CCRF-CEM leukemia, in the assay with DU-145 prostate, in the assay on K-562 leukemia, in the assay with LOX IMVI melanoma and in the assay with SF-539 CNS was greater than 100 µM throughout. Moreover, the concentration for total growth inhibition (TGI) in the assay with SK-MEL-2 melanoma, in the assay with SK-MEL-28 melanoma, with SNB-75 CNS and with SW-620 colon was greater than 100 µM in each case.

As for `CCSC12OC3(CCCCCN3C1=O)C1C(=O)N(c3ccccc3)C(=O)C12` (stereo not given), the TGI with ACHN renal, in the assay on CCRF-CEM leukemia, with DU-145 prostate, in the assay with K-562 leukemia, with LOX IMVI melanoma and in the assay on SF-539 CNS was greater than 100 µM throughout. The total growth inhibition concentration (TGI) in the assay with SK-MEL-2 melanoma, with SK-MEL-28 melanoma, in the assay with SNB-75 CNS and with SW-620 colon was greater than 100 µM each time.

Consider `CC1(C)CCCCCC(O)C(O)CCC(C)(C)C1=O` (stereo not given), for which the TGI in the assay with ACHN renal, in the assay on CCRF-CEM leukemia, in the assay with DU-145 prostate, in the assay on K-562 leukemia, with LOX IMVI melanoma and in the assay on SF-539 CNS was greater than 100 µM in each case. In addition, the TGI in the assay on SK-MEL-2 melanoma, in the assay with SK-MEL-28 melanoma, in the assay with SNB-75 CNS and in the assay on SW-620 colon was greater than 100 µM in each case.

`Cc1ccc(C)n1-c1ccccc1C1C=Cn2c(=O)oc3c(OC(C)C)c(OC(C)C)c(O)c1c32` (stereo not given): the TGI with ACHN renal is greater than 100 µM; with CCRF-CEM leukemia, greater than 100 µM; in the assay on DU-145 prostate, greater than 100 µM; in the assay with K-562 leukemia, greater than 100 µM; in the assay with LOX IMVI melanoma, 38.4 µM; with SF-539 CNS it was greater than 100 µM. The concentration for total growth inhibition (TGI) with SK-MEL-2 melanoma was 78.2 µM; with SK-MEL-28 melanoma it was greater than 100 µM; with SNB-75 CNS it was greater than 100 µM; with SW-620 colon, 75.6 µM.

Broadly, the TGI is the concentration at which net growth stops.
